A value given as a limit tells only on which side of the number the result lay.

Our source for the IC50 values is patent US20260297109A1, “COMPOUNDS AS SUMO ACTIVATING ENZYME INHIBITORS” (WIGEN BIOMEDICINE TECHNOLOGY (SHANGHAI) CO., LTD., priority 2022, published 2026).

One assay addresses T1, SAE (Homo sapiens, UniProt Q9UBT2).
T1 construct: endogenous in cells; host or cells: HCT116
T1 sequence (Q9UBT2 1-640): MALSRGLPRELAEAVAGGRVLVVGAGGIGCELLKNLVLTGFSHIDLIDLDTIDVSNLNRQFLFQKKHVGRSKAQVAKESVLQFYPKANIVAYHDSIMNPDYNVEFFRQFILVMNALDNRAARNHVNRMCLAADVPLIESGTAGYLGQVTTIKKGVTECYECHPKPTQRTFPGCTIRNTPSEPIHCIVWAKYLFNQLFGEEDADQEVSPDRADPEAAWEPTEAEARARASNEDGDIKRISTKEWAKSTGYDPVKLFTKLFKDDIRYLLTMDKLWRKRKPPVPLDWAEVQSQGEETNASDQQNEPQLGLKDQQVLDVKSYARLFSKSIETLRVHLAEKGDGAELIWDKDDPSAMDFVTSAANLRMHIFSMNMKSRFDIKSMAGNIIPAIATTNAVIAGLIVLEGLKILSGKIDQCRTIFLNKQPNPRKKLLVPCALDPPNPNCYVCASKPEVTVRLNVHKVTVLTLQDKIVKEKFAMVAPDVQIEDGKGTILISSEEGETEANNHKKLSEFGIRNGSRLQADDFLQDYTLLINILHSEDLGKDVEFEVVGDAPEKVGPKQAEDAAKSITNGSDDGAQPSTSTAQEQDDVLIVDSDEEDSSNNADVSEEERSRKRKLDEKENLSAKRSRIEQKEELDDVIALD
T1 sequence (Q9UBE0 1-346): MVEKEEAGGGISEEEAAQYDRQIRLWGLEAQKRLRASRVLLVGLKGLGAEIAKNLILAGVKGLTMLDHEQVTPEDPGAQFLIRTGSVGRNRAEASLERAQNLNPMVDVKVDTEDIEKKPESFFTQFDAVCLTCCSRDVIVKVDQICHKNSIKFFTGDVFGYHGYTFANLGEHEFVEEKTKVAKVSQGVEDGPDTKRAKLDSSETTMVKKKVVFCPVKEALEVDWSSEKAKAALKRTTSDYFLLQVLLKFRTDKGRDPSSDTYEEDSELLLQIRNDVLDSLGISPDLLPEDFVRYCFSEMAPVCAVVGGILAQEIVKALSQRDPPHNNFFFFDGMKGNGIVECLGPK
In words: SUMO IF: in vitro inhibitory activity assay against SAE in HCT116 cells (SUMO-2/3 immunofluorescence). The settings on record: class symbols, 6 h at 37° C. Format: cell-based. A digest of the protocol:
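HCT116 cells were treated with compound for 6 h at 37 °C, then PFA-fixed, Triton-permeabilised and BSA-blocked. They were stained overnight at 4 °C with anti-SUMO-2/3 (18H8) rabbit mAb (1:400), then with FITC anti-rabbit IgG (1:300). Fluorescence versus DMSO gave inhibition rate and IC50.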
`NS(=O)(=O)OC[C@H]1[C@H](F)[C@@H](Nc2ncncc2C(=O)c2cc3c(s2)CSCC32NCCc3ccc(F)cc32)C[C@@H]1O` (stereo partly drawn) [Compound 297] returned an IC50 of at most 50 nM.
Still for that read-out and setting: with `CC1(C)Cc2ccc(Cl)cc2[C@@]2(CCCc3sc(C(=O)c4cncnc4N[C@H]4C[C@H](O)[C@@H](COS(N)(=O)=O)[C@@H]4F)cc32)N1` [Compound 1031] the figure was 50 to 200 nM; with `NS(=O)(=O)OC[C@H]1[C@H](F)[C@@H](Nc2ncncc2C(=O)c2cc3c(s2)COCC32NCCc3c(F)cc(Cl)cc32)C[C@@H]1O` (stereo partly drawn) [Compound 573], 50 to 200 nM.
Take `COc1ccc2c(c1)C1(CCCc3sc(C(=O)c4cncnc4N[C@H]4C[C@H](O)[C@@H](COS(N)(=O)=O)[C@@H]4F)cc31)NCC2` (stereo partly drawn) [Compound 108]: the IC50 was above 200 nM.
As for `Cc1sc(C(=O)c2cncnc2N[C@H]2C[C@H](O)[C@@H](CCS(N)(=O)=O)[C@@H]2F)cc1[C@H]1NCCc2ccc(Cl)cc21` [Compound 992], the IC50 is above 200 nM.
On to `NS(=O)(=O)OC[C@H]1[C@H](F)[C@@H](Nc2ncncc2C(=O)c2cc3c(s2)COC[C@]32NCCc3cc(Cl)c(Cl)cc32)C[C@@H]1O` [Compound 563], for which the IC50 lay in the range of 50 to 200 nM.
`CC1CNC2(CCCc3sc(C(=O)c4cncnc4N[C@H]4C[C@H](O)[C@@H](COS(N)(=O)=O)[C@@H]4F)cc32)c2cc(Cl)ccc21` (stereo partly drawn) [Compound 1020]: the IC50 was in the range of 50 to 200 nM.
Take `NS(=O)(=O)OC[C@H]1[C@H](F)[C@@H](Nc2ncncc2C(=O)c2cc3c(s2)CCC32NCC3(CC3)c3ccc(Cl)cc32)C[C@@H]1O` (stereo partly drawn) [Compound 165]: the IC50 lay within 50 to 200 nM.
The compound `NS(=O)(=O)OC[C@H]1[C@H](F)[C@@H](Nc2ncncc2C(=O)c2cc3c(s2)CCC[C@@]32OCCc3ccc(Cl)cc32)C[C@@H]1O` [Compound 685] came in with an IC50 above 200 nM.
Still for that read-out and setting: with `Cc1sc(C(=O)c2cncnc2N[C@H]2C[C@H](O)[C@@H](COS(N)(=O)=O)[C@@H]2F)cc1[C@H]1NCCc2ccccc21` [Compound 231] the figure was above 200 nM; with `NS(=O)(=O)OC[C@H]1[C@H](F)[C@@H](Nc2ncncc2C(=O)c2cc3c(s2)CN(C2CC2)C[C@]32OCCc3ccc(F)cc32)C[C@@H]1O` [Compound 740], at most 50 nM.
On the same count and under the same terms, the same measure for `Cc1sc(C(=O)c2cncnc2N[C@H]2C[C@H](O)[C@@H](COS(N)(=O)=O)[C@@H]2F)cc1[C@@H]1NCCc2ccccc21` [Compound 230]: 50 to 200 nM.
Compound `CC1=C[C@@]2(NCCc3ccc(Cl)cc32)c2cc(C(=O)c3cncnc3N[C@H]3C[C@H](O)[C@@H](COS(N)(=O)=O)[C@@H]3F)sc21` [Compound 325] came in with an IC50 above 200 nM.
Still for that read-out and setting: with `NS(=O)(=O)OC[C@H]1[C@H](F)[C@@H](Nc2ncncc2C(=O)c2cc3c(s2)COC[C@@]32NCCc3ccc(Cl)c(Cl)c32)C[C@@H]1O` [Compound 559] the figure was above 200 nM; with `NS(=O)(=O)OC[C@H]1[C@H](F)[C@@H](Nc2ncncc2C(=O)c2cc3c(s2)CC[C@]32NCCc3cc(F)c(Cl)c(F)c32)C[C@@H]1O` [Compound 697], at most 50 nM.
The compound `NS(=O)(=O)OC[C@H]1[C@H](F)[C@@H](Nc2ncncc2C(=O)c2cc3c(s2)CSC[C@@]32NCCc3ncc(Cl)cc32)C[C@@H]1O` [Compound 613] displayed an IC50 above 200 nM.
On the same count and under the same terms, the same measure for `NS(=O)(=O)OC[C@H]1[C@H](F)[C@@H](Nc2ncncc2C(=O)c2cc3c(s2)CN(C2CC2)C[C@]32OCCc3ccc(Cl)cc32)C[C@@H]1O` [Compound 743]: at most 50 nM.
Still for that read-out and setting: with `NS(=O)(=O)OC[C@H]1[C@H](F)[C@@H](Nc2ncncc2C(=O)c2cc3c(s2)C=C[C@@]32OCCc3ccc(F)cc32)C[C@@H]1O` [Compound 757] the figure was above 200 nM; with `NS(=O)(=O)OC[C@H]1[C@H](F)[C@@H](Nc2ncncc2C(=O)c2cc3c(s2)OCC32NCCc3ccccc32)C[C@@H]1O` (stereo partly drawn) [Compound 139], above 200 nM; with `CN1Cc2sc(C(=O)c3cncnc3N[C@H]3C[C@H](O)[C@@H](COS(N)(=O)=O)[C@@H]3F)cc2C2(C1)NCCc1ccc(Cl)cc12` (stereo partly drawn) [Compound 576], at most 50 nM.
Still for that read-out and setting: the same measure for `CN1CCc2ccc(Cl)cc2C12CCCc1sc(C(=O)c3cncnc3N[C@H]3C[C@H](O)[C@@H](COS(N)(=O)=O)[C@@H]3F)cc12` (stereo partly drawn) [Compound 594]: 50 to 200 nM; for `CC1=C[C@]2(NCCc3ccc(F)cc32)c2cc(C(=O)c3cncnc3N[C@H]3C[C@H](O)[C@@H](COS(N)(=O)=O)[C@@H]3F)sc21` [Compound 623]: 50 to 200 nM.
With `NS(=O)(=O)OC[C@H]1[C@H](F)[C@@H](Nc2ncncc2C(=O)c2cc3c(s2)COCC32NCCc3ccc(F)cc32)C[C@@H]1O` (stereo partly drawn) [Compound 100], the IC50 lay within 50 to 200 nM.
The same measure, in the same setting: with `NS(=O)(=O)OC[C@H]1[C@H](F)[C@@H](Nc2ncncc2C(=O)c2cc3c(s2)OC[C@@]32NCCc3ccc(Cl)cc32)C[C@@H]1O` [Compound 146] the figure was above 200 nM.
Still for that read-out and setting: the same measure for `NS(=O)(=O)OC[C@H]1[C@H](F)[C@@H](Nc2ncncc2C(=O)c2cc3c(s2)CCC[C@]32NCCc3cc(Cl)c(F)cc32)C[C@@H]1O` [Compound 677]: at most 50 nM.
Still for that read-out and setting: with `NS(=O)(=O)OC[C@H]1[C@H](F)[C@@H](Nc2ncncc2C(=O)c2cc3c(s2)OCC32NCCc3ccc(F)cc32)C[C@@H]1O` (stereo partly drawn) [Compound 142] the figure was above 200 nM.
`NS(=O)(=O)OC[C@H]1[C@H](F)[C@@H](Nc2ncncc2C(=O)c2cc3c(s2)CCC32NCCc3cc(F)c(Cl)cc32)C[C@@H]1O` (stereo partly drawn) [Compound 153] came in with an IC50 of at most 50 nM.
Same read-out and setting: with `COc1cc2c(cc1Cl)[C@@]1(CCc3sc(C(=O)c4cncnc4N[C@H]4C[C@H](O)[C@@H](COS(N)(=O)=O)[C@@H]4F)cc31)NCC2` [Compound 696] the figure was 50 to 200 nM; with `CN1Cc2sc(C(=O)c3cncnc3N[C@H]3C[C@H](O)[C@@H](COS(N)(=O)=O)[C@@H]3F)cc2C2(C1)OCCc1ccc(F)cc12` (stereo partly drawn) [Compound 720], 50 to 200 nM.
In the case of `NS(=O)(=O)OC[C@H]1[C@H](F)[C@@H](Nc2ncncc2C(=O)c2nc3c(s2)COC[C@@]32NCCc3ccc(Cl)cc32)C[C@@H]1O` [Compound 589], the IC50 is above 200 nM.
`NS(=O)(=O)OC[C@H]1[C@H](F)[C@@H](Nc2ncncc2C(=O)c2cc3c(s2)CCC32OCCc3ccccc32)C[C@@H]1O` (stereo partly drawn) [Compound 744] registered an IC50 above 200 nM.
As to `NS(=O)(=O)OC[C@H]1[C@H](F)[C@@H](Nc2ncncc2C(=O)c2cc3c(s2)C=C[C@@]32OCCc3ccc(Cl)cc32)C[C@@H]1O` [Compound 760], the IC50 is above 200 nM.
The same measure, in the same setting: the same measure for `Cc1ccc2c(c1)[C@@]1(CCc3sc(C(=O)c4cncnc4N[C@H]4C[C@H](O)[C@@H](COS(N)(=O)=O)[C@@H]4F)cc31)NCC2` [Compound 687]: 50 to 200 nM; for `NS(=O)(=O)OC[C@H]1[C@H](F)[C@@H](Nc2ncncc2C(=O)c2cc3c(s2)CC[C@]32OCCc3ccc(Cl)cc32)C[C@@H]1O` [Compound 707]: at most 50 nM; for `CN1CCc2ccc(Cl)cc2[C@]12CCCc1sc(C(=O)c3cncnc3N[C@H]3C[C@H](O)[C@@H](COS(N)(=O)=O)[C@@H]3F)cc12` [Compound 595]: above 200 nM.
As for `NS(=O)(=O)OC[C@H]1[C@H](F)[C@@H](Nc2ncncc2C(=O)c2cc3c(s2)CSC[C@@]32NCCc3cnc(Cl)cc32)C[C@@H]1O` [Compound 607], the IC50 is above 200 nM.
With `NS(=O)(=O)OC[C@H]1[C@H](F)[C@@H](Nc2ncncc2C(=O)c2cc3c(s2)C(F)=C[C@@]32NCCc3ccc(Cl)cc32)C[C@@H]1O` [Compound 322], the IC50 was above 200 nM.

Staying with this assay, now noted: numeric values, 6 h at 37° C.
As to `Cc1sc(C(=O)c2cncnc2N[C@H]2C[C@H](O)[C@@H](COS(N)(=O)=O)[C@@H]2F)cc1[C@@H]1NCCc2ccc(F)cc21` [Compound 236], the IC50 was 73.1 nM.
Take `CCN1Cc2sc(C(=O)c3cncnc3N[C@H]3C[C@H](O)[C@@H](COS(N)(=O)=O)[C@@H]3F)cc2[C@@]2(C1)NCCc1ccc(Cl)cc12` [Compound 646]: the IC50 was above 1000 nM.
Still for that read-out and setting: the same measure for `NS(=O)(=O)OC[C@H]1[C@H](F)[C@@H](Nc2ncncc2C(=O)c2cc3c(s2)CN(CC(F)(F)F)C[C@]32NCCc3ccc(Cl)cc32)C[C@@H]1O` [Compound 653]: 25.9 nM.
`NS(=O)(=O)OC[C@H]1[C@H](F)[C@@H](Nc2ncncc2C(=O)c2cc3c(s2)CC[C@@]32NCCc3ccc(Cl)cc32)C[C@@H]1O` [Compound 131] displayed an IC50 above 1000 nM.
Same read-out and setting: with `C=CCN1Cc2sc(C(=O)c3cncnc3N[C@H]3C[C@H](O)[C@@H](COS(N)(=O)=O)[C@@H]3F)cc2[C@]2(C1)NCCc1ccc(Cl)cc12` [Compound 656] the figure was 25.1 nM.

Broadly, the IC50 is the point on the concentration scale where inhibition reaches its midpoint. High values mean weaker potency in that assay, low ones greater potency in that assay.
